Assay results as given in the supplement of paper PMC10307832.

Key:
Experiment in all cases: relative viability (nuclei count vs DMSO), 5 days (fraction); higher = more cells survive
COR-L 105 = test system: COR-L 105
How it was run: (§1)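 Lung cancer cell lines in 1536-well plates got either a single drug or a fixed anchor-drug dose together with five library-drug doses (not always all listed) in √10 steps, by pin tool, on the day after seeding. Nuclei were counted after 5 days, and relative viability is the treated-to-vehicle ratio of nuclei counts. Values are medians of duplicate plates.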

NCI-H1944 = test system: NCI-H1944
How it was run: as §1

SK-LU-1 = test system: SK-LU-1
How it was run: as §1

LU99A = test system: LU99A
How it was run: as §1

NCI-H1793 = test system: NCI-H1793
How it was run: as §1

A-427 = test system: A-427
How it was run: as §1

NCI-H1755 = test system: NCI-H1755
How it was run: as §1

HCC-366 = test system: HCC-366
How it was run: as §1

LC-2-ad = test system: LC-2-ad
How it was run: as §1

NCI-H1792 = test system: NCI-H1792
How it was run: as §1

HCC-78 = test system: HCC-78
How it was run: as §1

HOP-62 = test system: HOP-62
How it was run: as §1

NCI-H1915 = test system: NCI-H1915
How it was run: as §1

NCI-H1975 = test system: NCI-H1975
How it was run: as §1

NCI-H2085 = test system: NCI-H2085
How it was run: as §1

LCLC-97TM1 = test system: LCLC-97TM1
How it was run: as §1

NCI-H460 = test system: NCI-H460
How it was run: as §1

UMC-11 = test system: UMC-11
How it was run: as §1

LXF-289 = test system: LXF-289
How it was run: as §1

EPLC-272H = test system: EPLC-272H
How it was run: as §1

NCI-H358 = test system: NCI-H358
How it was run: as §1

CC(C)Oc1cc(Nc2nc(N[C@@H](C)c3ccc(F)cn3)ncc2Cl)n[nH]1 [AZ23] + C[C@]1(O)C[C@@H](c2nc(-c3ccc4ccc(-c5ccccc5)nc4c3)c3c(N)nccn32)C1 [Linsitinib] (partner 1 µM)
relative viability (COR-L 105; first compound 0.01 µM): 0.664 | relative viability (COR-L 105; first compound 0.03162 µM): 1.14 | relative viability (COR-L 105; first compound 0.3162 µM): 0.808 | relative viability (NCI-H1944; first compound 0.01 µM): 1.12 | relative viability (NCI-H1944; first compound 0.03162 µM): 1.18 | relative viability (NCI-H1944; first compound 0.3162 µM): 1.26 | relative viability (SK-LU-1; first compound 0.01 µM): 0.893 | relative viability (SK-LU-1; first compound 0.03162 µM): 1.16 | relative viability (SK-LU-1; first compound 0.3162 µM): 0.932 | relative viability (LU99A; first compound 0.01 µM): 0.534 | relative viability (LU99A; first compound 0.03162 µM): 0.579 | relative viability (LU99A; first compound 0.3162 µM): 0.593 | relative viability (NCI-H1793; first compound 0.01 µM): 1.04 | relative viability (NCI-H1793; first compound 0.03162 µM): 0.983 | relative viability (NCI-H1793; first compound 0.3162 µM): 0.952 | relative viability (A-427; first compound 0.01 µM): 1.24 | relative viability (A-427; first compound 0.03162 µM): 1.11 | relative viability (A-427; first compound 0.3162 µM): 1.16 | relative viability (NCI-H1755; first compound 0.01 µM): 1.13 | relative viability (NCI-H1755; first compound 0.03162 µM): 1.03 | relative viability (NCI-H1755; first compound 0.3162 µM): 1.06 | relative viability (HCC-366; first compound 0.01 µM): 0.596 | relative viability (HCC-366; first compound 0.03162 µM): 0.902 | relative viability (HCC-366; first compound 0.3162 µM): 0.56 | relative viability (LC-2-ad; first compound 0.01 µM): 0.941 | relative viability (LC-2-ad; first compound 0.03162 µM): 0.931 | relative viability (LC-2-ad; first compound 0.3162 µM): 0.851 | relative viability (NCI-H1792; first compound 0.01 µM): 0.565 | relative viability (NCI-H1792; first compound 0.03162 µM): 0.597 | relative viability (NCI-H1792; first compound 0.3162 µM): 0.61 | relative viability (HCC-78; first compound 0.01 µM): 0.495 | relative viability (HCC-78; first compound 0.03162 µM): 0.431 | relative viability (HCC-78; first compound 0.3162 µM): 0.434 | relative viability (HOP-62; first compound 0.01 µM): 1.09 | relative viability (HOP-62; first compound 0.03162 µM): 0.992 | relative viability (HOP-62; first compound 0.3162 µM): 0.95 | relative viability (NCI-H1915; first compound 0.01 µM): 1.13 | relative viability (NCI-H1915; first compound 0.03162 µM): 1.1 | relative viability (NCI-H1915; first compound 0.3162 µM): 1.09 | relative viability (NCI-H1975; first compound 0.01 µM): 1.13 | relative viability (NCI-H1975; first compound 0.03162 µM): 1.06 | relative viability (NCI-H1975; first compound 0.3162 µM): 0.972 | relative viability (NCI-H2085; first compound 0.01 µM): 1.03 | relative viability (NCI-H2085; first compound 0.03162 µM): 1.02 | relative viability (NCI-H2085; first compound 0.3162 µM): 0.761 | relative viability (LCLC-97TM1; first compound 0.01 µM): 0.185 | relative viability (LCLC-97TM1; first compound 0.03162 µM): 0.17 | relative viability (LCLC-97TM1; first compound 0.3162 µM): 0.168 | relative viability (NCI-H460; first compound 0.01 µM): 0.366 | relative viability (NCI-H460; first compound 0.03162 µM): 0.933 | relative viability (NCI-H460; first compound 0.3162 µM): 0.851 | relative viability (UMC-11; first compound 0.01 µM): 1.04 | relative viability (UMC-11; first compound 0.03162 µM): 1.04 | relative viability (UMC-11; first compound 0.3162 µM): 1.01 | relative viability (LXF-289; first compound 0.01 µM): 1.13 | relative viability (LXF-289; first compound 0.03162 µM): 1.1 | relative viability (LXF-289; first compound 0.3162 µM): 0.941 | relative viability (EPLC-272H; first compound 0.01 µM): 1.26 | relative viability (EPLC-272H; first compound 0.03162 µM): 1.22 | relative viability (NCI-H358; first compound 0.01 µM): 0.742 | relative viability (NCI-H358; first compound 0.03162 µM): 0.771 | relative viability (NCI-H358; first compound 0.3162 µM): 0.793

C[C@@H]1CN(CC(=O)Nc2ccc3c(c2)Cc2cccc(-c4cc(=O)cc(N5CCOCC5)o4)c2S3)C[C@H](C)O1 + C[C@]1(O)C[C@@H](c2nc(-c3ccc4ccc(-c5ccccc5)nc4c3)c3c(N)nccn32)C1 [Linsitinib] (partner 1 µM)
relative viability (COR-L 105; first compound 0.04 µM): 1.01 | relative viability (COR-L 105; first compound 0.1265 µM): 1.1 | relative viability (COR-L 105; first compound 0.4 µM): 0.746 | relative viability (COR-L 105; first compound 4 µM): 0.996 | relative viability (NCI-H1944; first compound 0.1265 µM): 1.24 | relative viability (NCI-H1944; first compound 0.4 µM): 1.36 | relative viability (NCI-H1944; first compound 4 µM): 1.22 | relative viability (SK-LU-1; first compound 0.04 µM): 1.18 | relative viability (SK-LU-1; first compound 0.1265 µM): 1.19 | relative viability (SK-LU-1; first compound 0.4 µM): 1.27 | relative viability (SK-LU-1; first compound 4 µM): 0.835 | relative viability (LU99A; first compound 0.04 µM): 0.489 | relative viability (LU99A; first compound 0.1265 µM): 0.46 | relative viability (LU99A; first compound 0.4 µM): 0.572 | relative viability (LU99A; first compound 4 µM): 0.596 | relative viability (NCI-H1793; first compound 0.04 µM): 1.02 | relative viability (NCI-H1793; first compound 0.1265 µM): 0.695 | relative viability (NCI-H1793; first compound 0.4 µM): 0.779 | relative viability (NCI-H1793; first compound 4 µM): 0.445 | relative viability (A-427; first compound 0.04 µM): 1.23 | relative viability (A-427; first compound 0.1265 µM): 1.14 | relative viability (A-427; first compound 0.4 µM): 1.12 | relative viability (A-427; first compound 4 µM): 1.11 | relative viability (NCI-H1755; first compound 0.04 µM): 1.01 | relative viability (NCI-H1755; first compound 0.1265 µM): 0.913 | relative viability (NCI-H1755; first compound 0.4 µM): 0.955 | relative viability (NCI-H1755; first compound 4 µM): 0.941 | relative viability (HCC-366; first compound 0.04 µM): 0.752 | relative viability (HCC-366; first compound 0.1265 µM): 0.622 | relative viability (HCC-366; first compound 0.4 µM): 0.428 | relative viability (HCC-366; first compound 4 µM): 0.495 | relative viability (LC-2-ad; first compound 0.04 µM): 0.798 | relative viability (LC-2-ad; first compound 0.1265 µM): 0.895 | relative viability (LC-2-ad; first compound 0.4 µM): 0.839 | relative viability (LC-2-ad; first compound 4 µM): 0.719 | relative viability (NCI-H1792; first compound 0.04 µM): 0.503 | relative viability (NCI-H1792; first compound 0.1265 µM): 0.519 | relative viability (NCI-H1792; first compound 0.4 µM): 0.564 | relative viability (NCI-H1792; first compound 4 µM): 0.425 | relative viability (HCC-78; first compound 0.04 µM): 0.485 | relative viability (HCC-78; first compound 0.1265 µM): 0.461 | relative viability (HCC-78; first compound 0.4 µM): 0.344 | relative viability (HCC-78; first compound 4 µM): 0.461 | relative viability (HOP-62; first compound 0.04 µM): 0.93 | relative viability (HOP-62; first compound 0.1265 µM): 0.945 | relative viability (HOP-62; first compound 0.4 µM): 0.897 | relative viability (HOP-62; first compound 4 µM): 0.947 | relative viability (NCI-H1915; first compound 0.04 µM): 1.05 | relative viability (NCI-H1915; first compound 0.1265 µM): 1.07 | relative viability (NCI-H1915; first compound 0.4 µM): 1.13 | relative viability (NCI-H1915; first compound 4 µM): 1.12 | relative viability (NCI-H1975; first compound 0.04 µM): 0.895 | relative viability (NCI-H1975; first compound 0.1265 µM): 0.866 | relative viability (NCI-H1975; first compound 0.4 µM): 0.81 | relative viability (NCI-H1975; first compound 4 µM): 0.8 | relative viability (NCI-H2085; first compound 0.04 µM): 0.992 | relative viability (NCI-H2085; first compound 0.1265 µM): 0.803 | relative viability (NCI-H2085; first compound 0.4 µM): 0.827 | relative viability (NCI-H2085; first compound 4 µM): 0.724 | relative viability (LCLC-97TM1; first compound 0.1265 µM): 0.157 | relative viability (LCLC-97TM1; first compound 0.4 µM): 0.204 | relative viability (LCLC-97TM1; first compound 4 µM): 0.204 | relative viability (NCI-H460; first compound 0.04 µM): 0.858 | relative viability (NCI-H460; first compound 0.1265 µM): 0.726 | relative viability (NCI-H460; first compound 0.4 µM): 0.682 | relative viability (NCI-H460; first compound 4 µM): 0.371 | relative viability (UMC-11; first compound 0.04 µM): 0.997 | relative viability (UMC-11; first compound 0.1265 µM): 0.993 | relative viability (UMC-11; first compound 0.4 µM): 1.05 | relative viability (UMC-11; first compound 4 µM): 0.857 | relative viability (LXF-289; first compound 0.04 µM): 0.981 | relative viability (LXF-289; first compound 0.1265 µM): 0.983 | relative viability (LXF-289; first compound 0.4 µM): 1.02 | relative viability (LXF-289; first compound 4 µM): 0.933 | relative viability (EPLC-272H; first compound 0.04 µM): 1.24 | relative viability (EPLC-272H; first compound 0.1265 µM): 1.12 | relative viability (EPLC-272H; first compound 0.4 µM): 1.17 | relative viability (EPLC-272H; first compound 4 µM): 1.36 | relative viability (NCI-H358; first compound 0.04 µM): 0.854 | relative viability (NCI-H358; first compound 0.1265 µM): 0.733 | relative viability (NCI-H358; first compound 0.4 µM): 0.703 | relative viability (NCI-H358; first compound 4 µM): 0.487
